Source: patent publication US9351983B2, “Use of glycerophosphoinositols for the treatment of septic shock” (CONSIGLIO NAZIONALE DELLE RICERCHE, priority 2012, dated 2016)

How the values were obtained:
[1] = test system: LPS-mediated gene transcription of COX-2; assay: Real-time RT-PCR of COX-2 mRNA in LPS-stimulated monocytes; format: cell-based, human; settings: 300 μM, 0.1 μg/ml LPS for 1.5 h or 24 h
Method: FIG. 4—The glycerophosphoinositols inhibit LPS-mediated gene transcription of TNFα, IL-1β and COX-2. Human monocytes were purified from peripheral blood and incubated at 37° C. for 20 min without or with 300 μM GroPIns or GroPIns4P, and for an additional 1.5 h or 24 h in the absence and presence of 0.1 μg/ml LPS from E. coli. At each time point, RNA was extracted and converted to cDNA for real-time PCR analysis of TNFα, IL-1β and COX-2. Each sample was measured in triplicate and the data were calculated using the delta-delta method (2-DDCT). Transcription of the house-keeping gene GAPDH was used to normalise the data. Measurements of mRNA levels were expressed as fold-increase over the respective control (unstimulated) cells, and are means (±SD) of triplicates from one representative experiment of 4 experiments performed with cells from different donors. Asterisks indicate statistically significant differences (*p<0.0485; **p<0.0092).
One μg total RNA (extracted through thiocyanate/caesium chloride method) was converted to cDNA using Moloney murine leukaemia virus reverse transcriptase (Applied Biosystems, Italy). […] Each sample was measured in triplicate and the data were analysed with the SDS 2.0 software (Applied Biosystems, Italy) by the delta-delta method (2-DDCT) for comparing relative expression results. […]

[2] = test system: LPS-induced degradation of I-κBα; assay: Western blotting of I-κBα in LPS-stimulated monocytes; format: cell-based, human; settings: 300 μM, 0.1 μg/ml LPS for 1 h
Method: Monocytes were incubated at 37° C. for 20 min without or with 300 μM GroPIns or GroPIns4P, and for a further 1 h in the absence and presence of 0.1 μg/ml LPS. After stimulation, the cells were lysed and expression levels of I-κBα were analysed. Proteins were resolved using 10% SDS-PAGE and were probed by Western blotting, using a polyclonal anti-I-κBα antibody. The data are representative of four experiments performed with monocytes isolated from peripheral blood of different donors.
Protein extracts were analysed by Western blotting by the following procedures. The nitrocellulose filters containing the proteins of interest were incubated in the blocking solution for Western blotting plus 3% bovine serum albumin (BSA) or 5% milk powder (Fluka, Switzerland) for 1 h at room temperature, and then with the primary antibody diluted to its working concentration (see Table 2) in the blocking solution for Western blotting (plus BSA or milk powder). After a 2-4 h incubation at room temperature, or an overnight (O/N) incubation at 4° C., the antibody was removed and the strips were washed twice in Tween®/Tris-buffered salt solution (TTBS), for 15 min each. […] After washing the strips were incubated with the enhanced luminescence (ECL) reagents (Amersham Pharmacia Biotech, NJ, USA), according to the manufacturer instructions, and protein signals were detect by autoradiography using Kodak film.

SMILES	effect on LPS-induced COX-2 mRNA expression [1]	effect on LPS-induced degradation of I-κBα [2]
O=P(O)(OCC(O)CO)OC1C(O)C(O)C(O)C(O)C1O (stereo not shown) [GroPIns, glycerophosphoinositol]	inhibited the effects of LPS on expression of all of the genes analysed	did not affect this LPS activity
O=P(O)(O)OC1[C@@H](O)[C@H](O)C(OP(=O)(O)OCC(O)CO)[C@@H](O)[C@H]1O (stereo partly shown) [GroPIns4P, glycerophosphoinositol 4-phosphate]	inhibited the effects of LPS on expression of all of the genes analysed	did not affect this LPS activity
